Results from patent EP2819510B1, “ORGAN PERFUSION SYSTEM” (Rodos BioTarget GmbH, priority 2012, dated 2013).

Legend:
[1] = molecular target: CYP2C9 (Homo sapiens, UniProt P11712); test: CYP activity in perfused liver tissue, diclofenac substrate
[2] = molecular target: CYP3A4 (Homo sapiens, UniProt P08684); test: CYP activity in perfused liver tissue, midazolam substrate
[3] = initial 30-min interval, dropped continuously thereafter
[4] = late (1-6 h), cirrhotic vs. non-cirrhotic liver

Sequence of CYP3A4 (P08684 whole entry, the tested form may be a part): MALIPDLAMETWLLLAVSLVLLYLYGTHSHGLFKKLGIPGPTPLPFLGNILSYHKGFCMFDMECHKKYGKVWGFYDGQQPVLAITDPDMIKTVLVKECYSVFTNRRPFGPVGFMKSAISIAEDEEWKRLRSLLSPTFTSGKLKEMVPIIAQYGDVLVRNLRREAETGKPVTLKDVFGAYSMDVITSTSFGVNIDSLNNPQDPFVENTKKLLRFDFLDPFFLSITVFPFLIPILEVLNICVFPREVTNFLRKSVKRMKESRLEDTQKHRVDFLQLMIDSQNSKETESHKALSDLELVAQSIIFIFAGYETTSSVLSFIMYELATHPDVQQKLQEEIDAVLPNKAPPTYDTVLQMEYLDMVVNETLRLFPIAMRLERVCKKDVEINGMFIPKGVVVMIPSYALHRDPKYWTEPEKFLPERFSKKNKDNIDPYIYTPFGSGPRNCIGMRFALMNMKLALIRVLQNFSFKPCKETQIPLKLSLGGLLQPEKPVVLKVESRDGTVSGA
Sequence of CYP2C9 (P11712 whole entry, the tested form may be a part): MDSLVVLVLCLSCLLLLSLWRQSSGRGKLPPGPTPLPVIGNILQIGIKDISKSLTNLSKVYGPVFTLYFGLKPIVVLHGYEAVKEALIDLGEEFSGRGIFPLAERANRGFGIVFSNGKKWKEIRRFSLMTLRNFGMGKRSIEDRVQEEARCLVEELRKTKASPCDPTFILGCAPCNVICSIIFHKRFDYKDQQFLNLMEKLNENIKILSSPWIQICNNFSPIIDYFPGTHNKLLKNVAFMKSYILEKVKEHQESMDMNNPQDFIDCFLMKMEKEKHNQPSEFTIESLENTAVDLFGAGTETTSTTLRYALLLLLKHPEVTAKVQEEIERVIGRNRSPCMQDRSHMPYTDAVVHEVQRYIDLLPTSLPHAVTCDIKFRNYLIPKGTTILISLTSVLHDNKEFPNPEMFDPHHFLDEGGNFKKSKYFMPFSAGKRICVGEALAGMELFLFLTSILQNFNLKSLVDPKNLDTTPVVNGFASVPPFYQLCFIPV

Row | Compound | formation of phase-I metabolite [1, 3] | AUC of phase-I product, CL tissue higher than NC tissue [1, 4] | formation of phase-I metabolite [2, 3] | AUC of phase-I product, CL tissue higher than NC tissue [2, 4]
1 | O=C(O)Cc1ccccc1Nc1c(Cl)cc(O)cc1Cl [OH-diclofenac, 4'-hydroxydiclofenac] | formed quite rapidly | 26.9% |  | 
2 | OCc1ncc2n1-c1ccc(Cl)cc1C(c1ccccc1F)=NC2 [OH-midazolam, 1'-hydroxymidazolam] |  |  | formed quite rapidly | 53.8%
